Measurements published in patent publication US20210196702A1, “TREATMENT OF HYPERKINETIC MOVEMENT DISORDERS” (Neurocrine Biosciences, Inc., priority 2014, published 2021).
Like-named read-outs stand apart in the source and are kept apart here. Each block holds one compound with its values, some of them ahead of it.

How the values were obtained:
[1] = test system: TD subjects; experiment: Phase 2 clinical study of NBI-98854: exposure-AIMS (video-rated) analysis; format: in vivo, human; conditions: for Mean AIMS reduction - % (week 6 vs baseline): regardless of NBI-98854 dose
Source text: Methods for determining the effectiveness of a therapeutic for treating a hyperkinetic disorder are routinely practiced in the art by a person skilled in the medical and clinical arts. By way of example, a subject with a hyperkinetic disorder may be diagnosed, monitored, and evaluated by the Abnormal Involuntary Movement Scale (AIMS). The AIMS is a structured neurological examination that was developed in 1976 and has been used extensively in movement disorder assessments. It consists of seven distinct ratings of regional involuntary body movements that are scored on a zero to four scale with zero being rated as none and four being rated as severe.
(§1) Observed exposure and Abnormal Involuntary Movement Scale (AIMS) derived from video ratings from a Phase 2 clinical study of (S)-2-amino-3-methyl-butyric acid (2R,3R,11bR)-3-isobutyl-9,10-dimethoxy-1,3,4,6,7,11b-hexahydro-2H-pyrido[2,1-a]isoquinolin-2-yl ester were employed for development of the exposure-response relationship. A total of […] were randomized to placebo (N=41) and (S)-2-amino-3-methyl-butyric acid (2R,3R,11bR)-3-isobutyl-9,10-dimethoxy-1,3,4,6,7,11b-hexahydro-2H-pyrido[2,1-a]isoquinolin-2-yl ester (either 25 mg, 50 mg or 75 mg, N=45). Thirty-eight patients receiving (S)-2-amino-3-methyl-butyric acid (2R,3R,11bR)-3-isobutyl-9,10-dimethoxy-1,3,4,6,7,11b-hexahydro-2H-pyrido[2,1-a]isoquinolin-2-yl ester had PK data available for the metabolite [+]α-dihydrotetrabenazine. […] AIMS derived from video rating was available at baseline and week 6 in each patient. Percent change from baseline at week 6 served as the response metric. [+]α-Dihydrotetrabenazine concentration at week 6 sampled at about the Tmax was available in each patient and this Cmax steady state (ss) was used as the exposure measure.
(§2) The patients who had quantifiable concentrations of [+]α-dihydrotetrabenazine were divided into quartiles based upon the week 6 Cmax ss. The mean Cmax ss and mean AIMS reduction from baseline were calculated for each quartile.

[2] = Phase 2 clinical study: week 6 plasma concentration (Cmax ss) of [+]α-HTBZ; format: in vivo; conditions: human, NBI-98854 25, 50 or 75 mg, TD patients
Source text: (§3) Plasma concentrations of (+)α-HTBZ, (+)β-HTBZ, and compounds as disclosed herein may be measured by methods as described in Derangula et al, Biomedical Chromatography 2013 27(6): 792-801, Mehvar et al, […] 1987 15(2): 250-55 and generally by tandem mass spectroscopy.
as §1, §2

[3] = NBI-98854 multiple-dose cohort: plasma (+)α-HTBZ on day 8; format: in vivo, human; conditions: for half-life: read-out: apparent ti (half-life) of plasma concentration decline (converted)
Procedure: as §3
NBI-98854 was administered orally once daily at a dose of 50 mg or 100 mg for 8 days to patients in a multiple-dose cohort (n=13 for 50 mg dosage group; n=4 for 100 mg dosage group). Individual subject plasma concentration data for (+)α-HTBZ was collected at scheduled times post-dose (0 hr, 2 hr, 4 hr, 6 hr, 8 hr, 12 hr, 16 hr, 24 hr, 48 hr, 96 hr, and 120 hr) on day 8 and presented as mean plasma concentration data (linear scale) (see, FIG. 1). On Day 8, median time to Tmax for (+)α-HTBZ was approximately 4.0 hours for both doses.

[4] = test system: TD subjects; experiment: Tolerability of repeated doses in TD subjects; format: in vivo, human; conditions: repeated doses from 12.5 mg to 100 mg per day
Procedure: Efficacy is related to the concentrations of the active metabolite [+]α-dihydrotetrabenazine. […] Exposures above 60 ng/mL in plasma afford little incremental benefit but increase the risk of adverse events reflecting extension of VMAT2 pharmacology. Exposures below 15 ng/mL are suboptimal across the general TD population.

[5] = cited from earlier work
[6] = test system: patients exposed to drug; conditions: patients exposed to metoclopramide (Rao et al 2010); cited from earlier work
[7] = active metabolite after NBI-98854, TD population

Cmax ([2]; 1st quartile by week 6 Cmax ss): ~15 ng/mL
Cmax ([2]; 2nd quartile by week 6 Cmax ss): ~29 ng/mL
Cmax ([2]; 3rd quartile by week 6 Cmax ss): 42 ng/mL
Cmax ([2]; 4th quartile by week 6 Cmax ss): 93 ng/mL
Plasma concentration maintained above threshold ([3]; NBI-98854 50 mg once daily, over a period of about 8 to about 24 hours): > 15 ng/mL
half-life ([3]; human, plasma, po, NBI-98854 50 mg orally once daily): ~21 h
half-life ([3]; human, plasma, po, NBI-98854 100 mg orally once daily): ~19 h
Tmax ([3]; human, plasma, po, NBI-98854 orally once daily, both doses (50 mg and 100 mg), read-out: median time to Tmax): ~4 h
Structure (SMILES): COc1cc2c(cc1OC)[C@H]1C[C@@H](O)[C@H](CC(C)C)CN1CC2 [(+)α-HTBZ, (2R, 3R, 11bR)-3-isobutyl-9,10-dimethoxy-1,3,4,6,7,11b-hexahydro-2H-pyrido[2,1-a]isoquinolin-2-ol]
Appropriate target concentration in plasma (exposure-response analysis) [1, 7]: 30 ng/mL
Plasma exposures affording little incremental benefit but increased risk of adverse events [1, 7]: above 60 ng/mL
Plasma exposures that are suboptimal across the general TD population [1, 7]: below 15 ng/mL

Structure (SMILES): COc1cc2c(cc1OC)[C@H]1C[C@@H](OC(=O)[C@@H](N)C(C)C)[C@H](CC(C)C)CN1CC2 [NBI-98854, (S)-2-amino-3-methyl-butyric acid (2R,3R,11bR)-3-isobutyl-9,10-dimethoxy-1,3,4,6,7,11b-hexahydro-2H-pyrido[2,1-a]isoquinolin-2-yl ester]
Mean AIMS reduction - % (week 6 vs baseline) ([1]; 3rd quartile of [+]α-HTBZ Cmax ss): 65%
Mean AIMS reduction - % (week 6 vs baseline) ([1]; 4th quartile of [+]α-HTBZ Cmax ss): 52%
Tolerability [4]: generally well tolerated

Structure (SMILES): COc1cc2c(cc1OC)C1CC(=O)C(CC(C)C)CN1CC2 (centres unmarked) [tetrabenazine, 3-isobutyl-9,10-dimethoxy-1,3,4,6,7,11b-hexahydro-2H-pyrido[2,1-a]isoquinolin-2-one]
Systemic exposure to parent drug ([5]; in humans, rapidly metabolized to HTBZ): virtually negligible

Structure (SMILES): CCN(CC)CCNC(=O)c1cc(Cl)c(N)cc1OC [metoclopramide]
Occurrence of drug-induced TD in patients exposed to drug [6]: < 1%

Structure (SMILES): COc1cc2c(cc1OC)C1CC(O)C(CC(C)C)CN1CC2 (centres unmarked) [HTBZ, 3-isobutyl-9,10-dimethoxy-1,3,4,6,7,11b-hexahydro-2H-pyrido[2,1-a]isoquinolin-2-ol]
half-life ([5]; HTBZ formed from tetrabenazine in humans): short
